From patent US9067898B1, “Isothiazole derivatives as GPR120 agonists for the treatment of type II diabetes” (Janssen Pharmaceutica NV, priority 2014, dated 2015)

Columns and labels:
[1] = target: T1, long form of human GPR120 (Homo sapiens, UniProt Q5NUL3); experiment: Human GPR120 DiscoveRx PathHunter Beta-Arrestin assay, Procedure β-arrestin A; format: cell-based; conditions: PathHunter CHO-K1 GPR120 β-Arrestin cell line, 3000 cells per well, read-out: hGPR120 β-arrestin A EC50
T1 construct: host or cells: PathHunter CHO-K1 GPR120 β-Arrestin Cell Line
T1 sequence (Q5NUL3 1-377 isoform Q5NUL3-1): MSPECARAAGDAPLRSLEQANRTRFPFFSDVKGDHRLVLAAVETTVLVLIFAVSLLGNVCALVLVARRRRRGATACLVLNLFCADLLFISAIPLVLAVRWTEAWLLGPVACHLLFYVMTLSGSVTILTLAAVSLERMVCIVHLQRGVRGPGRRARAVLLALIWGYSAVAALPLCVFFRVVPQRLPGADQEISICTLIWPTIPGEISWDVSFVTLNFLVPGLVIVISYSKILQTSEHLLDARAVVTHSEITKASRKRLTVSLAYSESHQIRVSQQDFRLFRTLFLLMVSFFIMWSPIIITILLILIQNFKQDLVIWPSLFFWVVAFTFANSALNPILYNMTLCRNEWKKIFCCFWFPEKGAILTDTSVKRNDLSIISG
T1 sequence (P32121 whole entry partner): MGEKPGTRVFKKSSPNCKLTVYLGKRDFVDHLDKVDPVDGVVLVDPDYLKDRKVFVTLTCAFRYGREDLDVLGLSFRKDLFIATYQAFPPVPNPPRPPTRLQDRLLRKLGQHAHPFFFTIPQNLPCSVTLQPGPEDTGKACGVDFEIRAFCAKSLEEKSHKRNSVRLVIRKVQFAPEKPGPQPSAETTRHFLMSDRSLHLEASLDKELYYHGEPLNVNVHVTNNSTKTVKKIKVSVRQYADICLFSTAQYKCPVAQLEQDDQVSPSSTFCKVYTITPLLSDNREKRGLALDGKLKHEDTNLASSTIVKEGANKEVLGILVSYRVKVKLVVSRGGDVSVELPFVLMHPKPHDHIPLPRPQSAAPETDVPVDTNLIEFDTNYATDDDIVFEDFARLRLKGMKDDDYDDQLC
From the text: The binding of an agonist (medium/long chain fatty acids or small molecule agonists) to the G-protein-coupled receptor GPR120 activates phospholipase C, leading to release of intracellular Ca^+2 through the generation of inositol 1,4,5-trisphosphate (InsP3 or IP3). GPR120 activation can also trigger intracellular signaling via recruitment of Beta-Arrestin. In the present method, agonist-induced activation of the human GPR120 receptor is monitored through the use of PathHunter CHO-K1 GPR120 Beta-Arrestin Cell Line engineered by DiscoveRx, as detailed below. The cell lines are designed to co-express both the ProLink/Enzyme Donor (PK)-tagged GPCR and the Enzyme […] (EA)-tagged Beta-Arrestin fusion proteins. Upon GPR120 receptor stimulation/activation, the EA-tagged Beta-Arrestin portion is translocated to the tagged receptor, where the two enzyme fragments are brought within close proximity. Under these conditions, these fragments can interact and form an active Beta-gal enzyme complex through Enzyme Fragment Complementation (EFC). This active Beta-gal complex can enzymatically hydrolyse the substrate to produce a detectable light signal; therefore, activation as a function of agonist concentration can be expressed as an EC50 value to determine relative compound activities. This in vitro assay therefore serves to assess compound agonist activity of the GPR120. Procedure β-Arrestin A: In Procedure β-arrestin A, the cell used were PathHunter CHO-K1 GPR120 β-Arrestin Cell Line, expressing the long form of human GPR120 (Genbank accession number NM 181745), with 3000 cells per well. Procedure β-Arrestin B: In Procedure 3-arrestin B the cells used were PathHunter CHO-K1 GPR120S β-Arrestin Cell Line, expressing the short form of the GPR120 receptor (Accession #NM_181745), with 5000 cells/well. Assay Procedure:
The selected CHO-K1 GPR120 β-Arrestin cells were cultured in Ham's F12 media supplemented with 10% fetal bovine serum (FBS), 1% Glutamine, lx p/s, 800 μg/mL G418 and 300 μg/mL Hygromycin B (for selection). Cell stocks were maintained and grown in a sub-confluent state using standard cell culture procedures. The day before the experiment, the cells were harvested with non-enzymatic cell dissociation buffer and re-suspended in complete growth media at the desired concentration. A Corning 384-plate was then seeded with the proper number of cells in a volume of 25 μL, per well. The seeded plates were incubated overnight at 37° C.
On the day of the experiment, the Assay Buffer containing (a) HBSS with Ca^++ and Mg^++, (b) 20 mM HEPES, and (c) 0.1% BSA stabilizer (pH 7.4) was prepared. The growth medium was gently removed from the cell plates and 20 μL of Assay Buffer added to each well. The plate was then incubated at 37° C. for 60 min. Test compounds were serially diluted in Assay Buffer to desired concentrations (more particularly to one or more of the following μM concentrations: 25, 12.5, 6.25, 3.125, 1.5625, 0.78125, 0.390625, 0.1953125, 0.09765625, 0.048828125, 0.024414063, 0.012207031). Five μL of compound dilution was then added to each well and the plate incubated at 37° C. for 90 min. The detection reagents were prepared according to the manufacture's instruction. Twelve μL of the detection reagents were added to each well and the plate incubated at room temperature for 60 min.
The plates were read on an EnVision instrument, using Protocol name: Luminescence, Plate type: 384 Costar, Measurement height: 3 mm, Measurement time: 1 s, Aperture: 384 Plate aperture. The % activity relative to the positive control was calculated using the following equation:
The % Activity values were plotted versus the concentration of test compound and fitted to a sigmoidal dose-response curve with a Hill slope=1 (fixed value) using nonlinear regression with GraphPad Prism 5.0 to calculate the EC50 values. […]

Human GPR120 short form = target: T2, Human GPR120 short form (Homo sapiens, UniProt Q5NUL3); experiment: Human GPR120 calcium flux assay (FLIPR), Procedure Calcium A; format: cell-based; conditions: HEK-293 cells expressing human GPR120 short form, 2500 cells/well; read-out: GPR120 Ca2+ Assay A EC50
T2 construct: expressed in transfected cells
T2 sequence (Q5NUL3 1-361): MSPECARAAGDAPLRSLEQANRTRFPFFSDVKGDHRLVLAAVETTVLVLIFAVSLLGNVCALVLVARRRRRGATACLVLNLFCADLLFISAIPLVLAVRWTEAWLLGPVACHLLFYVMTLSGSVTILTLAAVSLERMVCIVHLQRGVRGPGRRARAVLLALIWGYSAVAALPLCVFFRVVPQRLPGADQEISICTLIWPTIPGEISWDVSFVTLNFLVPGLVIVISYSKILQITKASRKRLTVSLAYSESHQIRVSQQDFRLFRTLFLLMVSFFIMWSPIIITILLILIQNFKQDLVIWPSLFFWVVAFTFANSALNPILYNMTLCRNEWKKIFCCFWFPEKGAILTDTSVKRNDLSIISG
In short: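 HEK293 cells stably expressing the short isoform (NM_001195755.1), 2500/well, starved 1 h, then loaded with Fluo-4 NW plus probenecid (30 min 37 °C, 15 min RT). Compound solutions 0.012–100 μM, 0.2% DMSO final; FLIPR read 300 s after addition. EC50 from Fmax−Fmin fitted to variable-slope sigmoid (Hill <2).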

SMILES	EC50 [1] [nM]	EC50 (Human GPR120 short form) [nM]
COc1ccc(-c2snc(Cl)c2COc2c(F)cc(CCC(=O)O)cc2F)cc1 [Cpd 97, 3-(4-[[3-chloro-5-(4-methoxyphenyl)-1,2-thiazol-4-yl]methoxy]-3,5-difluorophenyl)propanoic acid]	338	73
CCc1ccc(-c2cscc2COc2c(F)cc(CCC(=O)O)cc2F)cc1 [Cpd 53, 3-(4-((4-(4-ethylphenyl)thiophen-3-yl)methoxy)-3,5-difluorophenyl)propanoic acid]	668	191
CCc1ccc(-c2cscc2COc2ccc(CCC(=O)O)c(F)c2F)cc1 [Cpd 43, 3-(4-((4-(4-ethylphenyl)thiophen-3-yl)methoxy)-2,3-difluorophenyl)propanoic acid]	591	147
Cc1ccc(-c2snc(C)c2COc2c(F)cc(CCC(=O)O)cc2F)c(F)c1 [Cpd 84, 3-(3,5-difluoro-4-[[5-(2-fluoro-4-methylphenyl)-3-methyl-1,2-thiazol-4-yl]methoxy]phenyl) propanoic acid]	119	56
COc1ccc(-c2csc(C(F)(F)F)c2COc2c(F)cc(CCC(=O)O)cc2F)cc1 [Cpd 34, 3-(3,5-difluoro-4-((4-(4-methoxyphenyl)-2-(trifluoromethyl)thiophen-3-yl)methoxy)phenyl)propanoic acid]	208	65
COc1ccc(-c2nsc(C(F)(F)F)c2COc2c(F)cc(CCCO)cc2F)cn1 [Cpd 81, 3-(3,5-difluoro-4-[[3-(6-methoxypyridin-3-yl)-5-(trifluoromethyl)-1,2-thiazol-4-yl]methoxy]phenyl)propan-1-ol]	94	51
O=C(O)CCc1cc(F)c(OCc2c(Cl)nsc2-c2ccc(Cl)cc2F)c(F)c1 [Cpd 114, 3-(4-((3-chloro-5-(4-chloro-2-fluorophenyl)isothiazol-4-yl)methoxy)-3,5-difluorophenyl)propanoic acid]	295	100
CCc1ccc(-c2cc(Cl)sc2COc2c(F)cc(CCC(=O)O)cc2F)cc1 [Cpd 8, 3-(4-((5-chloro-3-(4-ethylphenyl)thiophen-2-yl)methoxy)-3,5-difluorophenyl)propanoic acid]	167	114
COc1ccc(-c2snc(Cl)c2COc2ccc(CCCO)c(F)c2F)cc1 [Cpd 168, 3-(4-[[3-chloro-5-(4-methoxyphenyl)-1,2-thiazol-4-yl]methoxy]-2,3-difluorophenyl)propan-1-ol]	325	223

Next, values leading:

EC50 [1] [nM]	EC50 (Human GPR120 short form) [nM]	SMILES
172	54	Cc1c(CCC(=O)O)ccc(OCc2c(-c3ccc(Cl)c(F)c3)nsc2C(F)(F)F)c1C [Cpd 82, 3-(4-((3-(4-chloro-3-fluorophenyl)-5-(trifluoromethyl)isothiazol-4-yl)methoxy)-2,3-dimethylphenyl)propanoic acid]
813	225	Cc1c(CCC(=O)O)ccc(OCc2csnc2-c2ccc(Br)cc2)c1C [Cpd 170, 3-(4-((3-(4-bromophenyl)isothiazol-4-yl)methoxy)-2,3-dimethylphenyl)propanoic acid]
85	57	COc1ccc(-c2nsc(C(F)(F)F)c2COc2ccc(CCC(=O)O)c(C)c2C)cc1 [Cpd 86, 3-(4-[[3-(4-methoxyphenyl)-5-(trifluoromethyl)-1,2-thiazol-4-yl]methoxy]-2,3-dimethylphenyl) propanoic acid]
70	104	Cc1ccc(-c2nsc(C(F)(F)F)c2COc2c(F)cc(CCC(=O)O)cc2F)cc1 [Cpd 115, 3-(3,5-difluoro-4-[[3-(4-methylphenyl)-5-(trifluoromethyl)-1,2-thiazol-4-yl]methoxy]phenyl) propanoic acid]
178	122	CCc1ccc(-c2nsc(C(F)(F)F)c2COc2ccc(CCC(=O)O)c(C)c2C)cc1 [Cpd 127, 3-(4-((3-(4-ethylphenyl)-5-(trifluoromethyl)isothiazol-4-yl)methoxy)-2,3-dimethylphenyl)propanoic acid]
242	165	Cc1cc(OCc2c(-c3ccc(Cl)c(F)c3)nsc2C(F)(F)F)c(F)cc1CCC(=O)O [Cpd 148, 3-(4-((3-(4-chloro-3-fluorophenyl)-5-(trifluoromethyl)isothiazol-4-yl)methoxy)-5-fluoro-2-methylphenyl)propanoic acid]
399	83	Cc1c(CCC(=O)O)ccc(OCc2c(Cl)nsc2-c2ccccc2Cl)c1C [Cpd 104, 3-(4-[[3-chloro-5-(2-chlorophenyl)-1,2-thiazol-4-yl]methoxy]-2,3-dimethylphenyl)propanoic acid]
639	293	Cc1c(CCC(=O)O)ccc(OCc2c(-c3ccc(F)cc3)csc2C(F)(F)F)c1C [Cpd 58, 3-(4-((4-(4-fluorophenyl)-2-(trifluoromethyl)thiophen-3-yl)methoxy)-2,3-dimethylphenyl)propanoic acid]
77	138	CCc1ccc(-c2nsc(C(F)(F)F)c2COc2ccc(CCCO)c(F)c2F)cc1 [Cpd 139, 3-(4-((3-(4-ethylphenyl)-5-(trifluoromethyl)isothiazol-4-yl)methoxy)-2,3-difluorophenyl)propan-1-ol]
182	770	Cc1c(CCCO)cc(F)c(OCc2c(-c3ccc(Cl)cc3)nsc2C(F)(F)F)c1F [Cpd 223, 3-(4-((3-(4-chlorophenyl)-5-(trifluoromethyl)isothiazol-4-yl)methoxy)-3,5-difluoro-2-methylphenyl)propan-1-ol]
539	131	Cc1c(CCC(=O)O)ccc(OCc2c(-c3c(F)cc(Cl)cc3F)nsc2C(F)(F)F)c1C [Cpd 133, 3-(4-((3-(4-chloro-2,6-difluorophenyl)-5-(trifluoromethyl)isothiazol-4-yl)methoxy)-2,3-dimethylphenyl)propanoic acid]
217	86	CCc1ccc(-c2nsc(C(F)(F)F)c2COc2ccc(CC(C)C(=O)O)cc2F)cc1 (centres unmarked) [Cpd 105, 3-(4-((3-(4-ethylphenyl)-5-(trifluoromethyl)isothiazol-4-yl)methoxy)-3-fluorophenyl)-2-methylpropanoic acid]
91	75	COc1ccc(-c2nsc(C(F)(F)F)c2COc2c(F)cc(CCC(=O)O)cc2F)cc1 [Cpd 99, 3-(3,5-difluoro-4-[[3-(4-methoxyphenyl)-5-(trifluoromethyl)-1,2-thiazol-4-yl]methoxy]phenyl)propanoic acid]
